Source: PMC10976043, “Function and Mechanism of Antiviral Wasp Venom Peptide Protopolybia-MP III and Its Derivatives against HSV-1” (Toxins, 2024)
Read-outs that look alike come from different tables or passages of the source. Ends that are not written are not given here.

Tests used:
HSV-1 virion = test: HSV-1 free virion infectivity assay, qPCR; format: cell-based, herpes simplex virus type 1; details: mutant comparison (Figure 7C): 5 μg/mL coincubated with HSV-1 (MOI 1) at 37 °C for 1 h, then Vero cells infected, 24 h
Description: Figure 5 Protopolybia-MP III destroys the integrity of HSV-1 free virions. (A) Schematic diagram for studying the effect of Protopolybia-MP III on HSV-1 free virion infectivity. (B) Effects of Protopolybia-MP III on HSV-1 free virion infectivity at different temperatures. HSV-1 (MOI = 1) and 20 μg/mL Protopolybia-MP III or PBS were coincubated at 4 °C, 22 °C, and 37 °C for 1 h, and then Vero cells were infected as described in (A). After 24 h, cells were collected, and intracellular HSV-1 RNA was analyzed by qPCR. (C) Effects of different concentrations of Protopolybia-MP III on HSV-1 free virion infectivity. HSV-1 (MOI = 1) and 1 or 10 μg/mL Protopolybia-MP III or PBS were coincubated at 37 °C for 1 h, and then Vero cells were infected as described in (A). After 24 h, cells were collected, and intracellular HSV-1 RNA was analyzed by qPCR. (D,E) The effect of Protopolybia-MP III on HSV-1 free virion integrity. HSV-1 and 20 μg/mL Protopolybia-MP III or PBS were coincubated at 37 °C for 1 h. Then, after centrifuging for 2 h at 40,000 rpm at 4 °C, the contents of HSV-1 gB in the supernatant and precipitate were detected by Western blotting (D). In addition, the structure of HSV-1 virions after incubation with Protopolybia-MP III was observed by electron microscopy. The red arrow points to a destroyed HSV-1 virion. *** p < 0.001.
(§1) Figure 7 Antiviral activity analysis of Protopolybia-MP III mutants. (A) Amino acid sequences of Protopolybia-MP III mutants. Identical amino acids among Protopolybia-MP I, Protopolybia-MP III, and its mutants are marked in blue, and different amino acids are marked in red. (B) Suppression of Protopolybia-MP I, Protopolybia-MP III, and its mutants on intracellular HSV-1 content. Cells were preincubated with 20 μg/mL peptides or PBS for 1 h and then infected with HSV-1 at an MOI of 1. After 24 h, the cells were collected. Intracellular HSV-1 ICP0 protein levels were analyzed by Western blotting. The ratios of HSV-1 ICP0 to GAPDH were calculated by ImageJ software. (C) Inhibition of HSV-1 free virion infectivity by Protopolybia-MP I, Protopolybia-MP III, and its mutants. HSV-1 (MOI = 1) and 5 μg/mL peptides or PBS were coincubated at 37 °C for 1 h, and the mixtures were then used to infect Vero cells. After 24 h, cells were collected, and intracellular HSV-1 RNA was analyzed by qPCR. ns, no significance. * p < 0.05. ** p < 0.01. *** p < 0.001.
(§2) Cells were collected and lysed using TRIzol reagent (Beyotime Biotechnology, Shanghai, China) to release the intracellular total RNA, followed by precipitation with isopropanol. The first-strand cDNA was reverse-transcribed by the HiScript III 1st Strand cDNA Synthesis Kit (+gDNA wiper) (Vazyme, Nanjing, China). The cDNA was quantitated by qPCR with primers using Taq Pro Universal SYBR qPCR Master Mix (Vazyme). The HSV-1 primers were 5′-[…]-3′ (sense) and 5′-[…]-3′ (antisense). The monkey GAPDH primers were 5′-[…]-3′ (sense) and 5′-[…]-3′ (antisense). The human GAPDH primers were 5′-[…]-3′ (sense) and 5′-[…]-3′ (antisense). qPCR experiments were performed on a Bio-Rad CFX96 Touch (Pleasanton, CA, USA) according to the manufacturer’s instructions.

HSV-1 ICP0 = format: cell-based, herpes simplex virus type 1; details: for inhibition rate on intracellular HSV-1 ICP0 protein expression: ICP0, 1 h; for inhibition rate on intracellular HSV-1 ICP0 expression level: ICP0, 24 h
Description: (§3) (A) Amino acid sequence of Protopolybia-MP III. Basic residues are labeled blue, and acidic residues are labeled red. (B,C) Suppression of intracellular HSV-1 infection by Protopolybia-MP III. Cells were preincubated with Protopolybia-MP III at different concentrations or PBS for 1 h and then infected with HSV-1 at a multiplicity of infection (MOI) of 1. After 24 h, the cells were collected. Intracellular HSV-1 RNA was analyzed by qPCR (B), and intracellular HSV-1 ICP0 protein levels were analyzed by Western blotting (C). (D) Suppression of Protopolybia-MP III on extracellular HSV-1 particles. Cells were treated with Protopolybia-MP III at different concentrations or PBS for 24 h, and then the supernatant was collected and evaluated in a plaque formation assay. (E) Cytotoxicity of Protopolybia-MP III to Vero cells. Cells were treated with Protopolybia-MP III or PBS at different concentrations for 24 h, and then the cytotoxicity was determined by CCK8 assay. * p < 0.05. ** p < 0.01. *** p < 0.001.
(§4) Figure 2 Protopolybia-MP III inhibits HSV-1 replication in human cell lines. (A) Cytotoxicities of Protopolybia-MP III to A549 cells, HCEC, and SK-N-MC. Cells were treated with Protopolybia-MP III at different concentrations or PBS for 24 h, and then cytotoxicities were determined by the CCK8 assay. (B,C) Suppression of intracellular HSV-1 infection by Protopolybia-MP III in A549 cells, HCEC, and SK-N-MC. Cells were preincubated with Protopolybia-MP III at different concentrations or PBS for 1 h and then infected with HSV-1 at an MOI of 1. After 24 h, the cells were collected. Intracellular HSV-1 RNA was analyzed by qPCR (B), and intracellular HSV-1 ICP0 protein expression levels were analyzed by Western blotting (C). (D) Inhibition of Protopolybia-MP III on extracellular HSV-1 particles in A549 cells, HCEC, and SK-N-MC. Cells were treated with Protopolybia-MP III at different concentrations or PBS for 24 h, and then the supernatant was collected and evaluated in a plaque formation assay. * p < 0.05. ** p < 0.01. *** p < 0.001.
as §1
(§5) HSV-1 was kindly provided by Professor Zhijian Cao of Wuhan University. Cells were infected with HSV-1 at an MOI of 1 for 24 h. Then, cells were collected for qPCR, Western blotting, and immunofluorescence assays, and the extracellular supernatant was used for plaque formation assays.
Cells were collected and lysed in 1% SDS. The cell lysate was heated at 100 °C for 20 min and centrifuged at 12,000 rpm at 4 °C for 15 min, and then the supernatant was collected and assayed with a BCA Protein Quantification Kit (Vazyme). Equal amounts of protein were separated using a PAGE Gel Fast Preparation Kit (10%) (Epizyme Biotech, Wuhan, China) and transferred to nitrocellulose (NC) membranes (Millipore, Wuhan, China). […]

Vero cells = test: CCK8 cytotoxicity assay, Vero cells; format: cell-based, monkey; details: 40 μg/mL, 24 h
Description: as §3
Cells were seeded in a 96-well plate (7000–10,000 cells per well) and cultured at 37 °C overnight. Peptides in a series of concentrations were added to the medium, and cells were then incubated at 37 °C for 24 h. […] Finally, the absorbance was measured at 450 nm using a microplate reader (BioTek, Winooski, VT, USA).

HSV-1 [1] = test: Plaque formation assay of extracellular HSV-1 particles; format: cell-based, herpes simplex virus type 1; details: Vero cells treated 24 h, supernatant in plaque formation assay
Description: as §3, §4
Vero cells seeded in a 24-well plate at 100% confluence were infected with virus diluent or supernatant. After 1 h of absorption at 37 °C, the supernatant was removed. Cells were washed three times with PBS and replenished with a plaque-covering layer (MEM with 2% FBS and 1.5% carboxymethylcellulose). After an incubation period of approximately 3 days, the cells were stained with 1% crystal violet containing 10% methanol for 0.5 h. Then, the plaques were counted, and the viral titer was calculated according to the plaque number and dilution.

HSV-1 [2] = format: cell-based, herpes simplex virus type 1; details: Vero cells, preincubated 1 h, HSV-1 MOI 1, 24 h, qPCR
Description: as §3, §4, §5, §2

| Substance | inhibition rate of HSV-1 free virion infectivity (HSV-1 virion) [%] | inhibition rate on intracellular HSV-1 ICP0 protein expression (HSV-1 ICP0; 20 μg/mL) [%] | further results |
| --- | --- | --- | --- |
| INWLKLGKAVSAIL-NH2 [MP III-11] | 64.7 | 73.4 | – |
| INWLKLGKAVIAIL-NH2 [MP III-10] | 100 | 100 | – |
| INWLKLGKAVIDIL-NH2 [MP III-4] | – | 99.4 | – |
| INWLKLGKKVSAAL-NH2 [MP III-14] | 25.3 | 90.8 | – |
| INWLKLGKKVIDAL-NH2 [MP III-1] | 59.7 | 53.7 | – |
| INWLKLGKAVSDIL-NH2 [MP III-9] | 63.6 | 63.8 | – |
| INWLKLGKKVIAIL-NH2 [MP III-12] | 92.4 | 76.8 | – |
| INWLKLGKKVIAAL-NH2 [MP III-6] | 95.5 | 63.2 | – |
| INWLKLGKKVSDIL-NH2 [MP III-13] | – | 60.2 | – |
| INWLKLGKAVSAAL-NH2 [MP III-8] | – | 66 | – |
| INWLKLGKAVIAAL-NH2 [MP III-3] | 58.3 | 94 | – |
| INWLKLGKKVIDIL-NH2 [MP III-7] | 100 | 100 | – |
| INWLKLGKKVSAIL-NH2 [Protopolybia-MP I] | – | – | cytotoxicity to Vero cells (Vero cells): almost nontoxic; extracellular HSV-1 particles (plaques) (HSV-1 [1]): almost no inhibitory effect; inhibition rate on intracellular HSV-1 RNA (HSV-1 [2]; 5 μg/mL peptide): no effect; inhibition rate on intracellular HSV-1 RNA (HSV-1 [2]; 10 μg/mL peptide): no effect; inhibition rate on intracellular HSV-1 RNA (HSV-1 [2]; 20 μg/mL peptide): no effect; inhibition rate on intracellular HSV-1 ICP0 expression level (HSV-1 ICP0; 5 μg/mL): 17%; inhibition rate on intracellular HSV-1 ICP0 expression level (HSV-1 ICP0; 10 μg/mL): 17%; inhibition rate on intracellular HSV-1 ICP0 expression level (HSV-1 ICP0; 20 μg/mL): 25% |
| INWLKLGKKVSDAL-NH2 [MP III-5] | – | 74.8 | – |
| INWLKLGKAVSDAL-NH2 [MP III-2] | 27.4 | 20.6 | – |
